Data reported in patent US9493455B2, “Azaindole derivatives as inhibitors of protein kinases” (ORIBASE PHARMA, priority 2012, dated 2016).

Key:
H1975 cells = experiment: Xenograft mouse model, human NSCLC with EGFR mutations; format: in vivo, mice
Description: (§1) Several xenograft mouse models were prepared: • 1) imatinib-resistant leukemia by subcutaneously implanting Ba/F3 T315I cells (1×10^8 cell/mL in sterile PBS), into the right flank of athymic nude male mice (HSD, 6-7 weeks old). When the tumor volume reached approximately 50 mm^3, mice were assigned randomly to either vehicle alone or OR0512 treatment groups (five mice per group). Mice were treated with either vehicle (DMSO) or OR0512 (40 mg/kg q.d.; per os for 11 consecutive days). • 2) human pancreatic adenocarcinoma model by subcutaneously implanting BxPC-3 cells (1×10^7 cell/mL in sterile PBS), into the right flank of athymic nude male mice (HSD, 6-7 weeks old). […]
(§2) Tumor volumes in mm^3 were determined three times a week with a digital caliper and calculated using the following formula: Tumor Volume (mm^3)=length (mm)×width (mm)×width (mm)×½. Body weight was measured three times a week, and mice were observed daily for monitoring signs of stress to detect possible toxicities. […] Data were analyzed with Prism 5.0b (GraphPad Software) by one-way ANOVA with Bonferroni post hoc. Tumor Growth Inibition (TGI) is calculated as the percent decrease of tumor growth at the end of the study in the OR0512 treatment group in comparison to the vehicle alone treatment group.

HeLa = experiment: In vitro cell proliferation assay (MTT); format: cell-based; settings: Homo sapiens, 72 h
In short: (§3)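 Growth is assessed with the tetrazolium dye MTT following a 72 hr incubation with compound spanning 10 nM up to 3 μM, each dose tested twice on 5×10^3 plated cells per well.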

BxPC-3 = experiment: In vitro cell proliferation assay (MTT); format: cell-based; settings: Homo sapiens, BXPC-3, 72 h
In short: as §3

HT29 = experiment: In vitro cell proliferation assay (MTT); format: cell-based; settings: Homo sapiens, HT-29, 72 h
In short: as §3

HuCCT1 = experiment: In vitro cell proliferation assay (MTT); format: cell-based; settings: Homo sapiens, HuCCT-1, 72 h
In short: as §3

HepG2 = experiment: In vitro cell proliferation assay (MTT); format: cell-based; settings: Homo sapiens, HepG2, 72 h
In short: as §3

Caki-2 = experiment: In vitro cell proliferation assay (MTT); format: cell-based; settings: Homo sapiens, CAKI-2, 72 h
In short: as §3

BaF3 T315I = experiment: In vitro cell proliferation assay (MTT); format: cell-based; settings: Mus musculus, BaF3, 72 h
In short: as §3

A549 = experiment: In vitro cell proliferation assay (MTT); format: cell-based; settings: Homo sapiens, A549, 72 h
In short: as §3

HUVEC = experiment: In vitro cell proliferation assay (MTT); format: cell-based; settings: Homo sapiens, 72 h
Description: Cancer cell lines (5×10^3 cells per well) or HUVEC (1×10^4 cells per well) or HRMEC (1×10^4 cells per well) were distributed in 96-well plates and incubating in duplicate with escalating concentrations (10 nM to 3 μM) of compounds for 72 hr. Cell proliferation was measured using MTT (3 [4,5-dimethylthiazol-2-yl]-2,5-diphenyltetrazolium bromide).

H1975 = experiment: In vitro cell proliferation assay (MTT); format: cell-based; settings: Homo sapiens, NCI-H1975, 72 h
In short: as §3

HRMEC = experiment: In vitro cell proliferation assay (MTT); format: cell-based; settings: 72 h
In short: as §3

PC-3 = experiment: In vitro cell proliferation assay (MTT); format: cell-based; settings: Homo sapiens, PC-3, 72 h
In short: as §3

HuH6 Clone 5 = experiment: In vitro cell proliferation assay (MTT); format: cell-based; settings: HUH-6-clone5, 72 h
In short: as §3

MDA-MB-231 = experiment: In vitro cell proliferation assay (MTT); format: cell-based; settings: Homo sapiens, MDA-MB-231, 72 h
In short: as §3

BaF3 G250A = experiment: In vitro cell proliferation assay (MTT); format: cell-based; settings: Mus musculus, BaF3, 72 h
In short: as §3

BaF3 E255K + M351T = experiment: In vitro cell proliferation assay (MTT); format: cell-based; settings: Mus musculus, BaF3, 72 h
In short: as §3

BaF3 WT = experiment: In vitro cell proliferation assay (MTT); format: cell-based; settings: Mus musculus, BaF3, 72 h
In short: as §3

HuH7 = experiment: In vitro cell proliferation assay (MTT); format: cell-based; settings: Homo sapiens, Huh-7, 72 h
In short: as §3

BaF3 G250E = experiment: In vitro cell proliferation assay (MTT); format: cell-based; settings: Mus musculus, BaF3, 72 h
In short: as §3

Ba/F3 T315I cells = experiment: Xenograft mouse model, imatinib-resistant leukemia (CML); format: in vivo, mice
Description: as §1, §2

HepG2 cells = experiment: Xenograft mouse model, human hepatocellular carcinoma; format: in vivo, mice
Description: as §1, §2

## COC(=O)c1cc2cc(NCc3cc(NC(=O)c4ccc(CN5CCN(C)CC5)c(C(F)(F)F)c4)ccc3C)cnc2[nH]1 [OR0512]
H1975 cells; H1975 xenograft, mice, 20 mg/kg q.d. per os, 22 days, versus vehicle, **P < 0.05
  Tumor Growth Inhibition - TGI: 73%**
H1975 cells; xenografted mice, human NSCLC (mutated form of EGFR) model
  decrease of tumor growth (in words): significantly induced a decrease of tumor growth
HeLa
  EC50: 100 to 1000 nM
BxPC-3
  EC50: ≤ 100 nM
HT29
  EC50: 100 to 1000 nM
HuCCT1
  EC50: 100 to 1000 nM
HepG2
  EC50: ≤ 100 nM
Caki-2
  EC50: ≤ 100 nM
BaF3 T315I
  EC50: ≤ 100 nM
A549
  EC50: ≤ 100 nM
HUVEC
  EC50: ≤ 100 nM
H1975
  EC50: 100 to 1000 nM
HRMEC
  EC50: ≤ 100 nM
PC-3
  EC50: 100 to 1000 nM
HuH6 Clone 5
  EC50: ≥ 1000 nM
MDA-MB-231
  EC50: ≤ 100 nM
BaF3 G250A
  EC50: ≤ 100 nM
BaF3 E255K + M351T
  EC50: ≤ 100 nM
BaF3 WT
  EC50: ≤ 100 nM
HuH7
  EC50: ≤ 100 nM
BaF3 G250E
  EC50: ≤ 100 nM
Ba/F3 T315I cells; Ba/F3 T315I xenograft, mice, 40 mg/kg q.d. per os, 11 days, versus vehicle
  Tumor Growth Inhibition - TGI: 37%
Ba/F3 T315I cells; xenografted mice, imatinib-resistant CML model expressing Bcr-Abl T315I
  decrease of tumor growth (in words): slight decrease of tumor growth
HepG2 cells; HepG2 xenograft, mice, 20 mg/kg q.d. per os, 15 days, versus vehicle, **P < 0.05
  Tumor Growth Inhibition - TGI: 69%**
HepG2 cells; xenografted mice, human hepatocellular carcinoma model
  decrease of tumor growth (in words): significantly induced a decrease of tumor growth
